Reference: US11993598B2, “Compounds for inhibiting EGFR kinase, preparation methods and uses thereof” (WIGEN BIOMEDICINE TECHNOLOGY (SHANGHAI) CO., LTD., priority 2019, dated 2024)

How the values were obtained:
EGFR-WT = EGFR-WT (Homo sapiens, UniProt P00533); test: Wild-type EGFR biochemical activity assay (HTRF)
Experimental: (§1) Assay 1: Wild-type EGFR, HER2 and HER4, and mutant EGFR biochemical activity assay
(§2) 10 nL of Serially diluted compounds were transferred to assay plates using the labcyte Echo 550, and 5 uL of 2× enzymes in assay buffer were subsequently dispensed. The assay plate was covered with an adhesive plate seal, and briefly spinned for 30 s at 1000 g. 5 uL of 2× TK-substrate-biotin and ATP mixed in assay buffer were added.
(§3) IC50 was calculated and analyzed using a 4 parametric logistic model.

H1975 = test: Cell line-derived xenograft (CDX) mouse model; format: in vivo, nude mice
Experimental: (§4) Assay 3. In vivo studies in cell line-derived (CDX) and patient derived xenografts (PDX) mouse models
(§5) Cells (H1975) or tissue pieces (LU0493 and LU0426) were implanted subcutaneously into the left armpit of nude mice. When the average tumor volume reached 100-150 mm^3, mice were randomized by tumor volume and treated with vehicle, compound 1 or poziotinib respectively. Tumor volume and body weight were measured twice per week. Mice were sacrificed on day 21 or day 28, and tumor volume and terminal body weight were recorded. The relative tumor volume, percent of treatment/control values and tumor growth inhibition were calculated and statistics was performed.
(§6) Terminal body weight changes were calculated as percentage of body changes from day 1 to day 21.

LU-01-0426 = test: Patient derived xenograft (PDX) mouse model; format: in vivo, nude mice
Experimental: as §4, §5, §6

LU-01-0493 = test: Patient derived xenograft (PDX) mouse model; format: in vivo, nude mice
Experimental: as §4, §5, §6

[1] = tested on: A431 (wild type EGFR, skin cancer); test: Cell proliferation assay (MTT); format: cell-based; settings: Homo sapiens, A-431, 72 h, three days
Experimental: (§7) A431 cells, H1975 and Ba/F3 cells expressing various mutant EGFR were harvested from exponential phase cultures and seeded in 96-well plates at a cell density of 3000 per well for A431 and H1975, and 10000 per well for Ba/F3 cells. After overnight attachment, compounds were 3-fold serially diluted and applied to cells at 30 μM, 10 μM, 3 μM, 1 μM, 0.3 μM, […], 0.03 μM and 0.01 μM with triplicates, and incubated for three days. 20 μL of 5 mg/mL MTT was added afterwards followed by the further addition of 50 μL 10% SDS together with 5% isobutyl alcohol in 0.01 mol/L HCl. The plates were incubated overnight. Absorbance (A) at a wavelength of 570 nm was quantified. Percentage of inhibition was used for the calculation of IC50 based on the bliss method.

[2] = biological target: Ba/F3_EGFR D770_N771insSVD (Homo sapiens, UniProt P00533, DUP768-770, cells depend on it); test: Cell proliferation assay (MTT); format: cell-based; settings: three days, read-out: Ba/F3_EGFR D770_N771insSVD IC50
Ba/F3_EGFR D770_N771insSVD, sequence (P00533 with tags, fused parts or gaps DUP768-770): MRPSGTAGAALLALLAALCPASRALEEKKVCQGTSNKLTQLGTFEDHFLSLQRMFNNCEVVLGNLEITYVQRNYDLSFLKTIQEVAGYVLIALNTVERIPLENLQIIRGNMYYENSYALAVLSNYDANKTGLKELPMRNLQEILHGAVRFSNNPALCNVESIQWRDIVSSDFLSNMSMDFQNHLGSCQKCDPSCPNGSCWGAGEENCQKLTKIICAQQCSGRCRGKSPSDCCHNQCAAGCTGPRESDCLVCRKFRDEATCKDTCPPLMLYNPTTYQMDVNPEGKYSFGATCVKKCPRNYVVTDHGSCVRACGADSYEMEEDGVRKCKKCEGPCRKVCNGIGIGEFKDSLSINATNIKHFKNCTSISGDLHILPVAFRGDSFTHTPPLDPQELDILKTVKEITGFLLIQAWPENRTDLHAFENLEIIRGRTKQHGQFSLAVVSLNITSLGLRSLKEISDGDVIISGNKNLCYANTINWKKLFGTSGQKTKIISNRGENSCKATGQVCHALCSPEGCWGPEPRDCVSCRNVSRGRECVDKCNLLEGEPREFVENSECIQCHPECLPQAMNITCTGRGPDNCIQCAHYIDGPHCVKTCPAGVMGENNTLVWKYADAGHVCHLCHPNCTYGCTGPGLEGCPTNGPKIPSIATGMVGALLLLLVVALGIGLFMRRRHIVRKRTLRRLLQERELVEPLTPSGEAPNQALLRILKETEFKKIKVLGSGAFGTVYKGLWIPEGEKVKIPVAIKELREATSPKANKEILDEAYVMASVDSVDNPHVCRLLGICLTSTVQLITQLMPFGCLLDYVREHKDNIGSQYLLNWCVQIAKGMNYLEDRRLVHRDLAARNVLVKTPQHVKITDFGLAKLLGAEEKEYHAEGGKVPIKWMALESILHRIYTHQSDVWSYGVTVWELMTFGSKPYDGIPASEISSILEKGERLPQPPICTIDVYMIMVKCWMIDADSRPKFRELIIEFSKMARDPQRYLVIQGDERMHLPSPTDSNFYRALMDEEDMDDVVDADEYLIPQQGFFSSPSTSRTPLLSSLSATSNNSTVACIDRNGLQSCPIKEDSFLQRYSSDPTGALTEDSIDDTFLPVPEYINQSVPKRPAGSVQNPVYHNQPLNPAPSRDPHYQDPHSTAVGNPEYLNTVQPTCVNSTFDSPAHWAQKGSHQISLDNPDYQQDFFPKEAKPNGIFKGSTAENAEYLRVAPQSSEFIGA
Experimental: as §7

[3] = biological target: Ba/F3_EGFR V769_D770insASV (Homo sapiens, UniProt P00533, DUP767-769, cells depend on it); test: Cell proliferation assay (MTT); format: cell-based; settings: three days, read-out: Ba/F3_EGFR V769_D770insASV IC50
Experimental: as §7

[4] = tested on: H1975 (EGFR L858R/T790M, NSCLC); test: Cell proliferation assay (MTT); format: cell-based; settings: Homo sapiens, NCI-H1975, 72 h, three days
Experimental: as §7

HER4 = HER4 (Homo sapiens, UniProt Q15303); test: HER4 biochemical activity assay (HTRF)
Experimental: as §1, §2, §3

HER2 = HER2 (Homo sapiens, UniProt P04626); test: HER2 biochemical activity assay (HTRF)
HER2, sequence (P04626 23-1255): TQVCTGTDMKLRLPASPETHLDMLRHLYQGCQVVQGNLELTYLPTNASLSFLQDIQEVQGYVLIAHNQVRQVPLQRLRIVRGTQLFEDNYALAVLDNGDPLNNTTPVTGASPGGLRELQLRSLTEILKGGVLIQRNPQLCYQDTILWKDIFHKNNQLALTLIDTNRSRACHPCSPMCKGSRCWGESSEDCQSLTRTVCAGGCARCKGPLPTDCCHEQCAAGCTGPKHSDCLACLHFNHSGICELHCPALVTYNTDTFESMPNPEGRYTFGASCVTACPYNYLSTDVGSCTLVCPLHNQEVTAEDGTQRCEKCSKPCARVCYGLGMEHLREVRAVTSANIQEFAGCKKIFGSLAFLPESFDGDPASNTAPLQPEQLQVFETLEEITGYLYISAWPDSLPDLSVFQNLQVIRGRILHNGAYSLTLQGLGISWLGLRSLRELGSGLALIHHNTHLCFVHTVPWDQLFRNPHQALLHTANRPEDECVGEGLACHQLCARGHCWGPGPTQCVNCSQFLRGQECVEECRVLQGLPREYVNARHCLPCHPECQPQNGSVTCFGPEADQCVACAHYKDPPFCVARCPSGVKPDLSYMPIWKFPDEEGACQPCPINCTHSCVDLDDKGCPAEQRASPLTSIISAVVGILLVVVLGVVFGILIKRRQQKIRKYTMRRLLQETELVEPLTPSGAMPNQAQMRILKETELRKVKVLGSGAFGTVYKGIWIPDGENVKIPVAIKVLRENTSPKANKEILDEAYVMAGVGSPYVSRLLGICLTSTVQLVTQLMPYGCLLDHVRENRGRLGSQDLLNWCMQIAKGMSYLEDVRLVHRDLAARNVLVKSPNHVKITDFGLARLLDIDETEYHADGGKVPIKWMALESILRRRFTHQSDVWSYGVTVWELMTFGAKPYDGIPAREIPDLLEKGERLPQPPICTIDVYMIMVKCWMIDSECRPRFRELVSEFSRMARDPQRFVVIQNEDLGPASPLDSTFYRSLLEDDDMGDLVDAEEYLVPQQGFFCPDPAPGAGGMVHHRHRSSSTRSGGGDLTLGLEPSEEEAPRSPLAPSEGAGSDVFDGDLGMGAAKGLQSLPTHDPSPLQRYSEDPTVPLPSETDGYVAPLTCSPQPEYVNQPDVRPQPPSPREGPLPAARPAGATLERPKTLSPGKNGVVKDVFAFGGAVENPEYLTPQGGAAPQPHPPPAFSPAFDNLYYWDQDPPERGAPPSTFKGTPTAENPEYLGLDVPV
Experimental: as §1, §2, §3

EGFR D770-N771insNPG = EGFR D770-N771insNPG (Homo sapiens, UniProt P00533, INS770NPG); test: Mutant EGFR biochemical activity assay (HTRF)
Experimental: as §1, §2, §3

EGFR D770GY = EGFR D770GY (Homo sapiens, UniProt P00533, D770Y/INS769G); test: Mutant EGFR biochemical activity assay (HTRF)
EGFR D770GY, sequence (P00533 with tags, fused parts or gaps INS769G/D770Y limits assumed): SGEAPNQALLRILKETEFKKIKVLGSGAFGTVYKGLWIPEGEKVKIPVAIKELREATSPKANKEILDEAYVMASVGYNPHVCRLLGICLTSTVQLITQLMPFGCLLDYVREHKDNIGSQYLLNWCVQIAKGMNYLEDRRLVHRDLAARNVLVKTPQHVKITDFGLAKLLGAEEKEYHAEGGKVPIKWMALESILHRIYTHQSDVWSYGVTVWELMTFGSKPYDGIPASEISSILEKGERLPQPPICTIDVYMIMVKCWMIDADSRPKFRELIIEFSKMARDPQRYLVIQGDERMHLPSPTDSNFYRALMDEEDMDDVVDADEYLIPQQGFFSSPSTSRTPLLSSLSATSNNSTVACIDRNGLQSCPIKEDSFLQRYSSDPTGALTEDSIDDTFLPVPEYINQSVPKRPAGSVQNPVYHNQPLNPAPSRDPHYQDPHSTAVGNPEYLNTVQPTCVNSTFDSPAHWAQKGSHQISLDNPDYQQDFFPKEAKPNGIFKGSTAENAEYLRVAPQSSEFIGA
Experimental: as §1, §2, §3

EGFR A763_Y764insFHEA = EGFR A763_Y764insFHEA (Homo sapiens, UniProt P00533, INS763FHEA); test: Mutant EGFR biochemical activity assay (HTRF); settings: read-out: IC50 (nM) EGFR A763_Y764 insFHEA
Experimental: as §1, §2, §3

EGFR T790M/L858R = EGFR T790M/L858R (Homo sapiens, UniProt P00533, L858R/T790M); test: Mutant EGFR biochemical activity assay (HTRF)
Experimental: as §1, §2, §3

EGFR T790M = EGFR T790M (Homo sapiens, UniProt P00533, T790M); test: Mutant EGFR biochemical activity assay (HTRF)
Experimental: as §1, §2, §3

EGFR L792H = EGFR L792H (Homo sapiens, UniProt P00533, L792H); test: Mutant EGFR biochemical activity assay (HTRF)
Experimental: as §1, §2, §3

EGFR L792F = EGFR L792F (Homo sapiens, UniProt P00533, L792F); test: Mutant EGFR biochemical activity assay (HTRF)
Experimental: as §1, §2, §3

[5] = biological target: EGFR D770_N771insNPG T790M (Homo sapiens, UniProt P00533, INS770NPG/T790M); test: Mutant EGFR biochemical activity assay (HTRF); settings: read-out: IC50 (nM) EGFR D770_N771 insNPG T790M
EGFR D770_N771insNPG T790M, sequence (P00533 with tags, fused parts or gaps INS770NPG/T790M limits assumed): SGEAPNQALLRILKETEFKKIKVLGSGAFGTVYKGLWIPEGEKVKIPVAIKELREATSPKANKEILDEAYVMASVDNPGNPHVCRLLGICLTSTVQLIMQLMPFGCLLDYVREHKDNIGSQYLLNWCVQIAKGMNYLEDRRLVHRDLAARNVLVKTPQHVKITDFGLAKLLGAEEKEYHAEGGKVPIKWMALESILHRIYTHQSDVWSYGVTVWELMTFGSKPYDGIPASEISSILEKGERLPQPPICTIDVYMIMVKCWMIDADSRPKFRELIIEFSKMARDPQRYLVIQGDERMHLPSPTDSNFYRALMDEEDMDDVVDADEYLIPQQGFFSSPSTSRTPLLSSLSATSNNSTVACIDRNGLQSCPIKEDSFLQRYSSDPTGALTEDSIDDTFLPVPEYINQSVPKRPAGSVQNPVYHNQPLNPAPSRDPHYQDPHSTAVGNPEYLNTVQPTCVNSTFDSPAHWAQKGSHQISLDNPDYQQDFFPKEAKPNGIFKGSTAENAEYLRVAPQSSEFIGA
Experimental: as §1, §2, §3

EGFR Del19 = EGFR Del19 (Homo sapiens, UniProt P00533); test: Mutant EGFR biochemical activity assay (HTRF)
EGFR Del19, sequence (P00533 with tags, fused parts or gaps DEL746-750): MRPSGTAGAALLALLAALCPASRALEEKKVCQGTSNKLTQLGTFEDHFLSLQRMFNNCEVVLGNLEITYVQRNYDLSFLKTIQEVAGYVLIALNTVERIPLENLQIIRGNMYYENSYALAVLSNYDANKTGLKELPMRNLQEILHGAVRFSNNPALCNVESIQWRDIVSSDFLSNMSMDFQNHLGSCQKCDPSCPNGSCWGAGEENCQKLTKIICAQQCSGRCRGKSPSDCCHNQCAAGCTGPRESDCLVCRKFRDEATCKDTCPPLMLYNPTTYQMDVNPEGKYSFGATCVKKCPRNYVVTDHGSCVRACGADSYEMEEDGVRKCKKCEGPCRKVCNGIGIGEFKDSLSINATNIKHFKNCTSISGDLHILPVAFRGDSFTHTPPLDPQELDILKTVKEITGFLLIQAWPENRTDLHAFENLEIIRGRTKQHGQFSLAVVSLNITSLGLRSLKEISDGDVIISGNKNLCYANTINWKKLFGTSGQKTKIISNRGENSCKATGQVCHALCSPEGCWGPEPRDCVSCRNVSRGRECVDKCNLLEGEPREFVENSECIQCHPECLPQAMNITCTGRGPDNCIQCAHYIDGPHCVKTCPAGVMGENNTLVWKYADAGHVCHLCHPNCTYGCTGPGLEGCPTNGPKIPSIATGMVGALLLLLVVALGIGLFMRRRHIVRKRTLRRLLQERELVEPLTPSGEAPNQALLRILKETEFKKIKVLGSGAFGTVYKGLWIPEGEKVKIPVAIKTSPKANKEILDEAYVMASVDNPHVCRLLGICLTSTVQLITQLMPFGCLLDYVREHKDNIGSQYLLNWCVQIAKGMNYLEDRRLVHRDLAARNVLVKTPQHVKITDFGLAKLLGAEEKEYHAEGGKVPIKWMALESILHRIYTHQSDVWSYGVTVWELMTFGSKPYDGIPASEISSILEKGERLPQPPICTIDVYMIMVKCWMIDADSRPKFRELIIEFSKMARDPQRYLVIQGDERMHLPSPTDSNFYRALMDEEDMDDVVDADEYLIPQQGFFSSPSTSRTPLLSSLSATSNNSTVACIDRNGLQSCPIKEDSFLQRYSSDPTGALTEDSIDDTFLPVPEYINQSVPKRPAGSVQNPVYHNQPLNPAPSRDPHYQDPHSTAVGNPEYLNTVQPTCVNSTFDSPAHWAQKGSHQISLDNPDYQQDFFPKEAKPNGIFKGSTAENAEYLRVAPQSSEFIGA
Experimental: as §1, §2, §3

LU-0387 = test: Xenograft mouse model LU-0387; format: in vivo, nude mice
[6] = tested on: tumor growth with EGFR exon 20 insertions and T790M mutations; test: In vivo CDX and PDX mouse models, overall statement; design: species or system nude mice
Experimental: as §4, §5, §6

C=CC(=O)Nc1cc(Nc2nccc(-n3c(=O)n4c5c(cc(F)cc53)CCC4)n2)c(OC)cc1N(C)CCN(C)C [Compound 1, N-(2-((2-(dimethylamino)ethyl)(methyl)amino)-5-((4-(8-fluoro-2-oxo-5,6-dihydro-4H-imidazo[4,5,1-ij]quinolin-1(2H)-yl)pyrimidin-2-yl)amino)-4-methoxyphenyl)acrylamide]
IC50 (EGFR-WT): 1.56 nM
TGI (%) (H1975; H1975, 15 mg/kg compound 1): 98%
Terminal body weight changes (%) (H1975; H1975, 15 mg/kg compound 1, day 1 to day 21): 3.9%
TGI (%) (H1975; H1975, 30 mg/kg compound 1): 106%
Terminal body weight changes (%) (H1975; H1975, 30 mg/kg compound 1, day 1 to day 21): 5.1%
TGI (%) (H1975; H1975, 60 mg/kg compound 1): 108%
Terminal body weight changes (%) (H1975; H1975, 60 mg/kg compound 1, day 1 to day 21): −4.1%
TGI (%) (LU-01-0426; LU-01-0426, 15 mg/kg compound 1): 47%
Terminal body weight changes (%) (LU-01-0426; LU-01-0426, 15 mg/kg compound 1, day 1 to day 21): 5.7%
TGI (%) (LU-01-0426; LU-01-0426, 30 mg/kg compound 1): 84%
Terminal body weight changes (%) (LU-01-0426; LU-01-0426, 30 mg/kg compound 1, day 1 to day 21): 1.8%
TGI (%) (LU-01-0426; LU-01-0426, 60 mg/kg compound 1): 106.3%
Terminal body weight changes (%) (LU-01-0426; LU-01-0426, 60 mg/kg compound 1, day 1 to day 21): −2%
TGI (%) (LU-01-0493; LU-01-0493, 15 mg/kg compound 1): 55.4%
Terminal body weight changes (%) (LU-01-0493; LU-01-0493, 15 mg/kg compound 1, day 1 to day 21): 3.2%
TGI (%) (LU-01-0493; LU-01-0493, 30 mg/kg compound 1): 72.3%
Terminal body weight changes (%) (LU-01-0493; LU-01-0493, 30 mg/kg compound 1, day 1 to day 21): −6.1%
TGI (%) (LU-01-0493; LU-01-0493, 60 mg/kg compound 1): 88.9%
Terminal body weight changes (%) (LU-01-0493; LU-01-0493, 60 mg/kg compound 1, day 1 to day 21): −6.5%
IC50 [1]: 157 nM
GI50 [2]: 7.06 nM
GI50 [3]: 20.2 nM
IC50 [4]: 52.9 nM
IC50 (HER4): 0.769 nM
IC50 (HER2): 35.1 nM
IC50 (EGFR D770-N771insNPG): 0.063 nM
IC50 (EGFR D770GY): 0.0649 nM
IC50 (EGFR A763_Y764insFHEA): 0.264 nM
IC50 (EGFR T790M/L858R): 0.0639 nM
IC50 (EGFR T790M): 0.0526 nM
IC50 (EGFR L792H): 27.6 nM
IC50 (EGFR L792F): 1.26 nM
IC50 [5]: 0.049 nM
IC50 (EGFR Del19): 0.175 nM
TGI (%) (LU-0387; LU-0387, 30 mg/kg compound 1): 42%
Terminal body weight changes (%) (LU-0387; LU-0387, 30 mg/kg compound 1, day 1 to day 21): −7.75%
TGI (%) (LU-0387; LU-0387, 60 mg/kg compound 1): 95%
Terminal body weight changes (%) (LU-0387; LU-0387, 60 mg/kg compound 1, day 1 to day 21): 1.26%
impact on body weight compared to poziotinib, in words [6]: less impacts on body weight
